In one assay the test system is HeLa cells. Put plainly: Assay 1 cell proliferation measurement (CTG, 72 h), HeLa. Format: cell-based, human. Particulars: Homo sapiens, HeLa; Assay 1, 72 h, Cell Titer Glo; read-out: HeLa IC50 [nM] (Cervical cancer). An outline of the steps:
(§1)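 Seed cells, incubate overnight at 37 °C; measure baseline viability (CTG, 0 h plate); dose compound in a 10-step 2.5-fold series (max generally 100 nM final, DMSO 0.3%) for 72 h; read CTG luminescence; fit IC50 with 4 parameters.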

For another assay, the target named is human full length PDE3A (Homo sapiens (Human), UniProt Q14432). Put plainly: Assay 4 PDE3A enzyme inhibition (3H-cAMP SPA). Format: biochemical. Particulars: Sf9 cell extract. In a few lines:
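Hydrolysis of [8-3H]cAMP by Sf9-expressed full-length PDE3A was measured by scintillation proximity, with enzyme diluted to keep kinetics linear and substrate consumption below 70%. Incubation ran 60 min at room temperature at pH 7.5.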

The subject of a further assay is SK-MEL-3 cells. Kind of assay: Assay 1 cell proliferation measurement (CTG, 72 h), SK-MEL-3. It is filed as cell-based, human. Particulars: Homo sapiens, SK-MEL3; Assay 1, 72 h, Cell Titer Glo; read-out: SK-MEL-3 IC50 [nM] (melanoma). An outline of the steps: as §1
Another assay concerns the target human full length PDE3B (Homo sapiens (Human), UniProt Q13370). Put plainly: Assay 5 PDE3B enzyme inhibition (3H-cAMP SPA). The settings on record: Sf9 cell extract. Format: biochemical. In a few lines:
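Inhibition was measured by scintillation proximity using [8-3H]adenosine 3′,5′-cyclic phosphate as substrate and full-length human PDE3B from an Sf9 overexpression extract, run one hour at room temperature at pH 7.5.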

Where only a bound is given, the exact number is not on record here.

Sequence of human full length PDE3A (Q14432 whole entry): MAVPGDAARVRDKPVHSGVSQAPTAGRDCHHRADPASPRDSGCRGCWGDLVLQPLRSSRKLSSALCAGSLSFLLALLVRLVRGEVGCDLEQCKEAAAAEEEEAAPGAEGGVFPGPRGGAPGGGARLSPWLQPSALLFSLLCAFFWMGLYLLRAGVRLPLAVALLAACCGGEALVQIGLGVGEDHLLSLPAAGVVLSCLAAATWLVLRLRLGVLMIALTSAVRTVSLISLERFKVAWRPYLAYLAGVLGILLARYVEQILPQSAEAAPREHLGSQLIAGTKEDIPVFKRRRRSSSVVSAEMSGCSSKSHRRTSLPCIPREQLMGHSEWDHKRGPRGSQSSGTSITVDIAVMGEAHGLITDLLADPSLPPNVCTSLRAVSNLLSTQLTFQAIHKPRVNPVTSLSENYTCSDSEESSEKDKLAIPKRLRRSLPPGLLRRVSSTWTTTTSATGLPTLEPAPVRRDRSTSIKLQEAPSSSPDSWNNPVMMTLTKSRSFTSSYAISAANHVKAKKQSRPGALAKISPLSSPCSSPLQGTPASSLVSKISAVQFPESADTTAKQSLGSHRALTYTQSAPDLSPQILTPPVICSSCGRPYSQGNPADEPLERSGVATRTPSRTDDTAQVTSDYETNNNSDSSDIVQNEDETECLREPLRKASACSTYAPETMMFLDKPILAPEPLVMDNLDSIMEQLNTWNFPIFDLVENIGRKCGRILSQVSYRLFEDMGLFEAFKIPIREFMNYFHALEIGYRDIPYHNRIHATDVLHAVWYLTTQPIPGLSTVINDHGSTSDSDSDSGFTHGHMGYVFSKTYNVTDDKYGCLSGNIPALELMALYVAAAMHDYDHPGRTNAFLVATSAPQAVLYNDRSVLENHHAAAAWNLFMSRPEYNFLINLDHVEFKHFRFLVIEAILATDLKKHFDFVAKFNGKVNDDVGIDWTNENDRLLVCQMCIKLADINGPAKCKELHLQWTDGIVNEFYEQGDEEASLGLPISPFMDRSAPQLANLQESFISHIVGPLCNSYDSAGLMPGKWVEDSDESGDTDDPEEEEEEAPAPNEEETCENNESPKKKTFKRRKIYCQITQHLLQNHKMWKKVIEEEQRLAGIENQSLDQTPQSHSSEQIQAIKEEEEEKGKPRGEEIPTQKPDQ
Sequence of human full length PDE3B (Q13370 whole entry): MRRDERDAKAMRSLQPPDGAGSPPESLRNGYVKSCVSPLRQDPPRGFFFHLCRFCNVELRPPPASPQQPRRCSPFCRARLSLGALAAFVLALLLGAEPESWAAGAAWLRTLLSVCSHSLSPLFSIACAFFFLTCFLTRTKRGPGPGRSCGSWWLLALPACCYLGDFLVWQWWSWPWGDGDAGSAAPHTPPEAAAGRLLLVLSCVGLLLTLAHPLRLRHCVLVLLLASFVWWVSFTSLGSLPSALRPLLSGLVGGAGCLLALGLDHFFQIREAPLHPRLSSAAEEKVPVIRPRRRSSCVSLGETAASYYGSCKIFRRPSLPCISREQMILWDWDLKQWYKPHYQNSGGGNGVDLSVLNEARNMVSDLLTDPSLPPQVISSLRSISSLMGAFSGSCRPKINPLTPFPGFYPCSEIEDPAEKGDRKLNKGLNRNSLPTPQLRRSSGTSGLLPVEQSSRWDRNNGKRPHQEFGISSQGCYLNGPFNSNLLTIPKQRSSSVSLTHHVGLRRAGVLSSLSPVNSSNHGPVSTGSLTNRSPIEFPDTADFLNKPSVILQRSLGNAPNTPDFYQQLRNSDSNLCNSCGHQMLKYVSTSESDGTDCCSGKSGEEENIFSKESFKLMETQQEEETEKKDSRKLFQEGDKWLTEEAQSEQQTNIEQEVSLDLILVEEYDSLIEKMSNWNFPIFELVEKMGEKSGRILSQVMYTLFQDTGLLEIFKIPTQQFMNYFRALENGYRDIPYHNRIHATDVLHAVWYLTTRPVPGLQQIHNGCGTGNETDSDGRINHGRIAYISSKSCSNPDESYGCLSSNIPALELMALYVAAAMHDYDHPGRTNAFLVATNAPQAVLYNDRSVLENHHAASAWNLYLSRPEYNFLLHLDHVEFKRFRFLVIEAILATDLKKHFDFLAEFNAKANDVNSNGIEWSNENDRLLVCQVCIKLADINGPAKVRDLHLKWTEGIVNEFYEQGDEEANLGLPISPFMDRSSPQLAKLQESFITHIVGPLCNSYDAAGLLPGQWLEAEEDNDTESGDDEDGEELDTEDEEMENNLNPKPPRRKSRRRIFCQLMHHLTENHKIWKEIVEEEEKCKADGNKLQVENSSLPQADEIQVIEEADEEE

In the case of `O=C1NN=C(c2ccc(-c3ccc(F)cc3)c(F)c2)CO1` [Example 30, 5-(2,4′-Difluorobiphenyl-4-yl)-3,6-dihydro-2H-1,3,4-oxadiazin-2-one], the IC50 with HeLa cells was 1 nM; against human full length PDE3A, 99 nM; with SK-MEL-3 cells, 4 nM; against human full length PDE3B, 79 nM.
As for `COCCNc1ccc(C2=NNC(=O)OC2)cc1C(F)(F)F` [Example 222, 5-{4-[(2-Methoxyethyl)amino]-3-(trifluoromethyl)phenyl}-3,6-dihydro-2H-1,3,4-oxadiazin-2-one], the IC50 worked out at 1 nM in the assay on HeLa cells, 76 nM at human full length PDE3A, 1 nM in the assay with SK-MEL-3 cells and 120 nM at human full length PDE3B.
Take `Cn1c(C#N)ccc1-c1ccc(C2=NNC(=O)OC2)cc1C(F)(F)F` [Example 50, 1-Methyl-5-[4-(2-oxo-3,6-dihydro-2H-1,3,4-oxadiazin-5-yl)-2-(trifluoromethyl)phenyl]-1H-pyrrole-2-carbonitrile]: the IC50 in the assay on HeLa cells stood at 81 nM; against human full length PDE3A it was 260 nM; with SK-MEL-3 cells, 19800 nM; against human full length PDE3B, 210 nM.
Consider `CN(C)CCNc1ccc(C2=NNC(=O)OC2)cc1C(F)(F)F` [Example 323, 5-[4-{[2-(dimethylamino)ethyl]amino}-3-(trifluoromethyl)phenyl]-3,6-dihydro-2H-1,3,4-oxadiazin-2-one], for which the concentration for half-maximal inhibition (IC50) in the assay on HeLa cells is more than 84 nM; on human full length PDE3A, more than 280 nM; in the assay on SK-MEL-3 cells it was more than 100 nM; against human full length PDE3B, more than 910 nM.
Regarding `CC1OC(=O)NN=C1c1ccc(N2CCOCC2)c(F)c1` (racemic) [Example 119, (rac)-5-(3-Fluoro-4-morpholinophenyl)-6-methyl-3,6-dihydro-2H-1,3,4-oxadiazin-2-one], the IC50 with HeLa cells is 5 nM; against human full length PDE3A, 36 nM; in the assay with SK-MEL-3 cells, 7 nM; on human full length PDE3B, 13 nM.
Take `O=C1NN=C(c2ccc(-c3cccc(F)c3)c(C(F)(F)F)c2)CO1` [Example 138, 5-[3′-Fluoro-2-(trifluoromethyl)biphenyl-4-yl]-3,6-dihydro-2H-1,3,4-oxadiazin-2-one]: the IC50 in the assay with HeLa cells amounted to 7 nM; against human full length PDE3A, 150 nM; in the assay with SK-MEL-3 cells it was 19 nM; against human full length PDE3B, 200 nM.
For `COc1nc(C)ccc1-c1ccc(C2=NNC(=O)OC2)cc1C(F)(F)F` [Example 53, 5-[4-(2-Methoxy-6-methylpyridin-3-yl)-3-(trifluoromethyl)phenyl]-3,6-dihydro-2H-1,3,4-oxadiazin-2-one], in that order: 36 nM, 580 nM, 13000 nM and 390 nM.
For `Nc1ccccc1-c1ccc(C2=NNC(=O)OC2)cc1F` [Example 102, 5-(2′-Amino-2-fluoro[1,1′-biphenyl]-4-yl)-3,6-dihydro-2H-1,3,4-oxadiazin-2-one], in that order: 23 nM, 170 nM, 40 nM and 280 nM.
Taken in the same sequence, the figures for `O=C1NN=C(c2ccc(-c3ccc(F)c(F)c3)c(F)c2)CO1` [Example 107, 5-(2,3′,4′-Trifluoro[1,1′-biphenyl]-4-yl)-3,6-dihydro-2H-1,3,4-oxadiazin-2-one] were 6 nM, 150 nM, 12 nM and 160 nM.
`O=C1NN=C(c2ccc(-c3ccc(O)cc3)c(F)c2)CO1` [Example 105, 5-(2-Fluoro-4′-hydroxy[1,1′-biphenyl]-4-yl)-3,6-dihydro-2H-1,3,4-oxadiazin-2-one]: the IC50 in the assay with HeLa cells turned out to be 8 nM; at human full length PDE3A it was 48 nM; in the assay with SK-MEL-3 cells, 15 nM; against human full length PDE3B it was 100 nM.
Taken in the same sequence, the figures for `O=C1NN=C(c2ccc(-c3cccc(F)c3F)c(C(F)(F)F)c2)CO1` [Example 64, 5-[2′,3′-Difluoro-2-(trifluoromethyl)biphenyl-4-yl]-3,6-dihydro-2H-1,3,4-oxadiazin-2-one] were 17 nM, 221 nM, 41 nM and 193 nM.
Taken in the same sequence, the figures for `Cc1cc(-c2ccc(C3=NNC(=O)O[C@H]3C)cc2C(F)(F)F)ccn1` [Example 184, (6S)-6-Methyl-5-[4-(2-methylpyridin-4-yl)-3-(trifluoromethyl)phenyl]-3,6-dihydro-2H-1,3,4-oxadiazin-2-one] were 5 nM, 66 nM, 6 nM and 57 nM.
For the compound `Cc1ncc(-c2ccc(C3=NNC(=O)OC3)cc2C(F)(F)F)s1` [Example 54, 5-[4-(2-Methyl-1,3-thiazol-5-yl)-3-(trifluoromethyl)phenyl]-3,6-dihydro-2H-1,3,4-oxadiazin-2-one], the concentration for half-maximal inhibition (IC50) with HeLa cells stood at 1 nM; at human full length PDE3A, 100 nM; with SK-MEL-3 cells, 3 nM; on human full length PDE3B, 89 nM.
For `Cc1ncc(-c2ccc(C3=NNC(=O)OC3)cc2C(F)(F)F)cc1F` [Example 48, 5-[4-(5-Fluoro-6-methylpyridin-3-yl)-3-(trifluoromethyl)phenyl]-3,6-dihydro-2H-1,3,4-oxadiazin-2-one], in that order: 8 nM, 240 nM, 16 nM and 240 nM.
For `Nc1ccc(-c2ccc(C3=NNC(=O)OC3)cc2C(F)(F)F)cn1` [Example 40, 5-[4-(6-Aminopyridin-3-yl)-3-(trifluoromethyl)phenyl]-3,6-dihydro-2H-1,3,4-oxadiazin-2-one], in that order: 5 nM, 42 nM, 7 nM and 39 nM.
Regarding `O=C1NN=C(c2ccc(-c3cc4ccccc4s3)c(C(F)(F)F)c2)CO1` [Example 148, 5-[4-(1-Benzothiophen-2-yl)-3-(trifluoromethyl)phenyl]-3,6-dihydro-2H-1,3,4-oxadiazin-2-one], the IC50 in the assay on HeLa cells is 53 nM; against human full length PDE3A, 190 nM; in the assay with SK-MEL-3 cells, more than 100 nM; at human full length PDE3B it was 210 nM.
Taken in the same sequence, the figures for `O=C1NN=C(c2ccc(-c3cccc(O)c3)c(F)c2)CO1` [Example 104, 5-(2-Fluoro-3′-hydroxy[1,1′-biphenyl]-4-yl)-3,6-dihydro-2H-1,3,4-oxadiazin-2-one] were 37 nM, 35 nM, 17 nM and 58 nM.
Taken in the same sequence, the figures for `O=C1NN=C(c2ccc(C3=CCOC3)c(C(F)F)c2)CO1` [Example 329, 5-[3-(difluoromethyl)-4-(2,5-dihydrofuran-3-yl)phenyl]-3,6-dihydro-2H-1,3,4-oxadiazin-2-one] were 41 nM, 100 nM, 64 nM and 93 nM.
Taken in the same sequence, the figures for `O=C1NN=C(c2ccc(N3CCC(F)(F)C3)c(F)c2)CO1` [Example 26, 5-[4-(3,3-Difluoropyrrolidin-1-yl)-3-fluorophenyl]-3,6-dihydro-2H-1,3,4-oxadiazin-2-one] were 9 nM, 700 nM, 29 nM and 270 nM.
On to `CC1OC(=O)NN=C1c1cc(F)c(N2CCOCC2)c(F)c1` (racemic) [Example 17, (rac)-5-[3,5-Difluoro-4-(morpholin-4-yl)phenyl]-6-methyl-3,6-dihydro-2H-1,3,4-oxadiazin-2-one], for which the half-inhibitory concentration (IC50) with HeLa cells was determined as 7 nM; on human full length PDE3A, 25 nM; in the assay with SK-MEL-3 cells it was 17 nM; on human full length PDE3B it was 17 nM.
On to `NC1CCCC(Nc2ccc(C3=NNC(=O)OC3)cc2C(F)(F)F)C1` (mixture of isomers) [Example 322, 5-[4-{[3-aminocyclohexyl]amino}-3-(trifluoromethyl)phenyl]-3,6-dihydro-2H-1,3,4-oxadiazin-2-one (mixture of stereoisomers)], for which the IC50 in the assay on HeLa cells was more than 100 nM; against human full length PDE3A, 580 nM; with SK-MEL-3 cells, more than 100 nM; against human full length PDE3B, 780 nM.
As to `C[C@@H]1OC(=O)NN=C1c1ccc(-c2cc(F)c(F)cc2F)c(C(F)(F)F)c1` [Example 169, (6S)-6-Methyl-5-[2′,4′,5′-trifluoro-2-(trifluoromethyl)[1,1′-biphenyl]-4-yl]-3,6-dihydro-2H-1,3,4-oxadiazin-2-one], the IC50 in the assay with HeLa cells came out at 20 nM; on human full length PDE3A it was 180 nM; in the assay with SK-MEL-3 cells it was 32 nM; on human full length PDE3B, 240 nM.
For `Cn1ncc2ccc(-c3ccc(C4=NNC(=O)OC4)cc3C(F)(F)F)cc21` [Example 75, 5-[4-(1-Methyl-1H-indazol-6-yl)-3-(trifluoromethyl)phenyl]-3,6-dihydro-2H-1,3,4-oxadiazin-2-one], in that order: 22 nM, 31 nM, 44 nM and 78 nM.
For `Cc1cc(-c2ccc(C3=NNC(=O)OC3)cc2F)ccc1F` [Example 86, 5-(2,4′-Difluoro-3′-methylbiphenyl-4-yl)-3,6-dihydro-2H-1,3,4-oxadiazin-2-one], in that order: 6 nM, 84 nM, 25 nM and 210 nM.
